Legend:
[1] = test system: cytosolic PLA2; experiment: Semiquantitative RT-PCR of cytosolic PLA2 expression in HL-60 cells; assay type: cell-based, human; details: HL-60 cells (FIG. 9)
Method: Cell culture. Human promyelocytic HL-60 cells and promonocytic U937 cells were grown in RPMI-1640 culture medium supplemented with 10% (v/v) heat-inactivated fetal calf serum, 2 mM L-glutamine, 100 units/ml penicillin and 24 μg/ml gentamicin. Mouse 3T3 fibroblasts were grown in Dulbecco's modified Eagle's medium (DMEM) supplemented with 10% (v/v) heat-inactivated fetal calf serum, 2 mM L-glutamine, 100 units/ml penicillin and 24 μg/ml gentamicin. Cells were incubated at 37° C. in a humidified atmosphere at 5% CO2 and 95% air.
Reverse transcriptase polymerase chain reaction (RT-PCR). Total RNA was extracted from human neutrophils and cell lines using TRIZOL reagent (GIBCO-BRL) following the manufacturer's instructions. RNA preparations were carefully checked by gel electrophoresis and found to be free of DNA contamination. For the RT reaction, total RNA (10 μg) was primed with oligo-dt and reverse-transcribed into cDNA with 30 units of M-MLV reverse transcriptase from Promega according to manufacturer's instructions in a final volume of 20 μL. The mixture was incubated at 37° C. for 90 min. The generated cDNA was used for the semi-quantitative RT-PCR and the β-actin gene was used as an internal control. […]

[2] = test system: experimental colitis induced by TNB (2,4,6-trinitrobenzenesulphonic acid); experiment: Rat model of experimental colitis induced by TNB, macroscopic evaluation; assay type: in vivo; set-up: Wet Weight (colon): unit not given beside the values; details: Wistar rat; for Wet Weight (colon) / Sample 2 × 6 mm / Score (0-10) / Weight/mm: Mean ± SEM
Method: The therapeutic potential for the treatment of ulcerative colitis of IEC01 at 2.5 and 5 mg/kg and IES01 at 2.5 mg/kg, was evaluated after their administration by oral route during 14 days (7 days of preventive treatment and 7 days of therapeutic treatment) using the rat model of experimental colitis induced by TNB (2,4,6-trinitrobenzenesulphonic acid). As reference parameters, the body weight, wet colon weight and score macroscopic evaluation were evaluated after 24 hours and after 7 days of the intraluminal administration of TNB in the colon. […] The inflammatory response is recognised by the presence of ulcerative fissures, faecal shatters and inflammation of bowel wall. A chronic inflammatory response was observed 7 days after the administration. An erratic response with lineal or punctual ulcers, necrosis, faecal shatters, reduction of colonic lumen, granulomas and peritoneal adherence was observed.

[3] = test system: CD44; experiment: Cell surface expression of CD44 in human neutrophils (immunofluorescence flow cytometry); assay type: cell-based; details: Medium = 100
Description: Isolation and treatment of neutrophils.
Monoclonal antibodies. […] The antibodies are commercially available.
Immunofluorescence flow cytometry. […] Results were expressed as relative MFI (rMFI), such that
rMFI=(MFIagent×100)/MFImedium
Background fluorescence was substracted from all values.

[4] = 2.5 mg/Kg p.o., after 24 hours of intraluminal administration
[5] = 2.5 mg/Kg p.o., after 7 days of intraluminal administration
[6] = 5.0 mg/Kg p.o., after 24 hours of intraluminal administration
[7] = 5.0 mg/Kg p.o., after 7 days of intraluminal administration

CCCCCCCCCCCCCCCCCCOCC(COP(=O)([O-])OCC[N+](C)(C)C)OC (centres unmarked) [IEC01, Edelfosine]
mRNA expression of cytosolic PLA2 [1]: did not affect | % (inhibition, Sample 2 × 6 mm) [2, 4]: 14.7% | % (inhibition, Score) [2, 4]: 8.6% | % (inhibition, Weight/mm) [2, 4]: 35.2% | % (inhibition, Wet Weight) [2, 4]: 35.1% | Wet Weight (colon) ([2]; 2.5 mg/Kg p.o., after 24 hours of intraluminal administration in the colon): 1.689 ± 0.15 | Sample 2 × 6 mm [2, 4]: 373.12 ± 48.12 mg | Score (0-10) [2, 4]: 5.2 ± 0.73 | Weight/mm [2, 4]: 0.187 ± 0.02 | % (inhibition, Sample 2 × 6 mm) [2, 5]: 17.9% | % (inhibition, Weight/mm) [2, 5]: 13.3% | % (inhibition, Wet Weight) [2, 5]: 13.4% | Wet Weight (colon) ([2]; 2.5 mg/Kg p.o., after 7 days of intraluminal administration in the colon): 1.354 ± 0.14 | % (inhibition, Score) ([2]; 2.5 mg/Kg p.o., after 7 days of intraluminal administration, 2.5 mg/kg): 78,6% | Sample 2 × 6 mm [2, 5]: 299.62 ± 75.58 mg | Score (0-10) [2, 5]: 1.2 ± 0.58 | Weight/mm [2, 5]: 0.150 ± 0.00 | % (inhibition, Sample 2 × 6 mm) [2, 6]: 61.7% | % (inhibition, Score) [2, 6]: 42.9% | % (inhibition, Weight/mm) [2, 6]: 77.3% | % (inhibition, Wet Weight) [2, 6]: 77.4% | Wet Weight (colon) ([2]; 5.0 mg/Kg p.o., after 24 hours of intraluminal administration in the colon): 1.412 ± 0.06 | Sample 2 × 6 mm [2, 6]: 301.10 ± 18.95 mg | Score (0-10) [2, 6]: 4.0 ± 0.32 | Weight/mm [2, 6]: 0.157 ± 0.00 | % (inhibition, Sample 2 × 6 mm) [2, 7]: 71.4% | % (inhibition, Weight/mm) [2, 7]: 63.0% | % (inhibition, Wet Weight) [2, 7]: 63.0% | Wet Weight (colon) ([2]; 5.0 mg/Kg p.o., after 7 days of intraluminal administration in the colon): 1.113 ± 0.14 | % (inhibition, Score) ([2]; 5.0 mg/Kg p.o., after 7 days of intraluminal administration, 5 mg/kg): 71,4% | Sample 2 × 6 mm [2, 7]: 272.14 ± 53.65 mg | Score (0-10) [2, 7]: 1.4 ± 0.40 | Weight/mm [2, 7]: 0.124 ± 0.01 | CD44 cell surface expression (rMFI) ([3]; 10 ng/ml): 97 ± 2 | CD44 cell surface expression (rMFI) ([3]; 100 ng/ml): 84 ± 4 | CD44 cell surface expression (rMFI) ([3]; 500 ng/ml): 75 ± 7 | CD44 cell surface expression (rMFI) ([3]; 1 μg/ml): 48 ± 9 | CD44 cell surface expression (rMFI) ([3]; 5 μg/ml): 40 ± 8

From US6583127B1, “Use of etherlysophospholipids as antiinflammatory agents” (Inkeysa. SA, priority 1998, dated 2003)
